Entries after “also recorded” stand apart in the source; their conditions may differ.
How the values were obtained:
Format in all cases: in vivo, mouse
[1] = tested on: NO synthesis in bone marrow (NOS); test: Real-time bone marrow NO measurement with NO microelectrode during HBO; details: diabetic mice, insulin 6 U/kg twice/d i.p.
Method: For HBO treatment, mice were placed in an animal hyperbaric chamber (Reneau Corp.) and subjected to 100% oxygen at 2.4 atmospheres absolute (ATA) for 90 min (Davis Wound Healing Protocol). To measure continuous, real-time BM NO levels, NO microelectrodes was inserted into the femoral marrow cavity as previously described. An osteotomy was created on the patellar surface of the murine femur using a 25 G beveled needle, allowing the electrode to be lowered into the marrow space when the animal was placed in the hyperbaric chamber. In some mice, pretreatment with L-NAME (40 mg/kg i.p.) (Sigma-Aldrich) was given 2 h prior to exposure to HBO.
In early studies, it was hypothesized that HBO2 augments stem cell mobilization because it stimulates •NO synthesis in the bone marrow, as •NO is known to play a central role with stem cell release from bone marrow. […] Mice were placed in a hyperbaric chamber where, while breathing air, baseline measurements were obtained. The chamber was then flushed with 100% O2 and compressed to 2.4 ATA O2.
Physiologically, the NO-mediated EPC release into circulation occurs in response to tissue-level hypoxia, although this compensatory response is inadequate in the setting of diabetes and results in severe defects in neovascularization and wound healing. […] Therefore, it was sought to utilize HBO as a tool to augment EPC release into circulation and further study both EPC mobilization and wound-homing mechanisms in the presence of diabetes. The goal was to determine whether hyperoxia stimulates NO production in the BM of diabetic mice via a NOS-mediated pathway and whether this pathway is impaired in diabetes. To test this hypothesis, Nafion polymer—coated NO microsensors were inserted into the femur BM space of both STZ induced diabetic and nondiabetic mice to measure real-time NO levels within the BM prior to and is during HBO-induced hyperoxia. […] It was speculated, that this was likely due to a compensatory effect from other NOS isoforms, and therefore the level of both iNOS and nNOS was examined in diabetic mice. […] However, no observation was made of any changes in the phosphorylation of these NOS isoforms.

BM eNOS phosphorylation = test: Western blot of bone marrow eNOS and phospho-eNOS; details: diabetic mice treated with insulin
Method: Isolation of whole BM from FVB/NJ mice (n=12/group) was obtained by flushing harvested femurs and tibias with PBS/2% FBS. Red blood cells were removed by Red Cell Lysis Buffer (Sigma-Aldrich). Isolated BM cells were then lysed and protein concentrations were determined by DC protein assay (Bio-Rad Laboratories). Equal amounts of protein were subjected to 4-12% SDS gel electrophoresis under reducing conditions. The transferred PVDF membranes were probed with primary Ab (anti-eNOS and anti-phospho-eNOS (Ser^1177) (BD Biosciences) diluted 1:500 in 1% milk in TBST buffer and then incubated with HRP-conjugated second Ab (DakoCytomation Inc.). Proteins were visualized using enhanced chemiluminescence (Amersham Bioscience).
In diabetic patients, circulating EPCs are decreased in both number and function, and so it was hypothesized that BM eNOS activation is impaired in diabetes. To examine this question, BM was isolated from streptozocin-induced (STZ-induced) diabetic and nondiabetic mice and analyzed via Western blot for levels of total and phosphorylated eNOS protein. Although no changes in the amount of total eNOS protein were observed, the levels of biologically active phosphorylated eNOS protein were decreased in diabetic mice as compared with nondiabetic controls (FIG. 12A). […]

SDF-1α in wound tissue = test: Wound SDF-1α level (immunostaining); details: diabetic mice treated with insulin
Excerpt: For immunostaining, paraffin embedded serial sections (5 μm) were first underwent standard deparaffinizing and rehydration procedures and then probed with various Abs. To assess wound SDF-1α^+ cells, sections were double-stained with HTC-conjugated anti-SDF-1α and PE-conjugated different tissue-specific Abs (eBiosciences). To detect blood vessels in wound, sections were stained with HTC-conjugated anti-VEGFR2Ab. For examination of wound EPC recruitment in BM transplantation experiment, sections were double-stained with FITC-GFP and PE-VEGFR2 (BD Biosciences). Nuclei were counterstained with Hoescht dye. Masson's trichrome staining and H&E staining were performed using standard method and all reagents were from Sigma-Aldrich. Tissue sections were analyzed using fluorescence microscopy and ImageJ (NIH) software to quantitate fluorescent intensity. In trichrome stained slides, blue stain (collagen content) was also quantitatively analyzed by ImageJ.

[2] = tested on: diabetic cutaneous wounds; test: Peripheral wound healing (wound closure) in diabetic mice
Method: Tie2-GFP, wild-type or chimeric FVB mice at 6-12 wk of age were treated with STZ (Sigma-Aldrich) to induce diabetes. Mice were rendered diabetic by i.p. administration of 60 mg/kg STZ in 50 mM sodium citrate, pH 4.5, daily for 5 d. Control mice were treated with daily injections of citrate buffer. Serum glucose was measured from the mouse tail vein using a glucometer. Once serum glucose reached 250 mg/dL, mice were followed with daily measurements for 1 wk prior to use in experiments. Serum glucose levels in STZ mice averaged 461 mg/dL with a range of 372-520 mg/dL, while control mice serum glucose mean level was 120 mg/dL with a range of 94-135 mg/dL. Wounds were induced on the ventral surface of the mouse thigh using a 4 mm punch biopsy. Full-thickness skin was removed, exposing the underlying muscle.
Initial wound surface area was recorded and wounds were then followed serially with daily digital photographs using an Olympus digital camera. Photographs contained an internal scale to allow for standard calibration of measurements. Wound area was quantified using ImageJ software. Wound area was expressed as the percentage of original wound size. Wounds were followed for 6 d and mice were sacrificed at the conclusion of the experiment.
EPCs play a key role in vasculogenesis and cutaneous tissue repair. It was hypothesized that increased numbers of EPCs in circulation, along with enhanced EPC homing to wounds, results in improved wound healing in diabetes. Diabetic wound closure rates were studied, in response to treatment with HBO and SDF-1α alone and in combination. Wounded diabetic mice underwent daily wound injections with SDF-1α, PBS, HBO, or SDF-1α+HBO treatments. […] This healing response was greater than the response to either treatment modality alone. In addition, histochemical analysis was conducted to examine blood vessel density (VEGFR2 staining), cellularity and stromagenesis (H&E staining), and extracellular constitution (trichrome staining) in wound tissues. […]

## insulin: human insulin (NPH), 6 U/kg twice/d i.p.
[1]
  reversal of impaired BM NO production: little effect
[1]; listed as Insulin
  reversal of impaired BM NO production: did not reverse
BM eNOS phosphorylation
  reversal of impaired BM eNOS phosphorylation: little effect
BM eNOS phosphorylation; listed as Insulin
  reversal of impaired BM eNOS phosphorylation: failed to restore
SDF-1α in wound tissue
  impaired wound SDF-1α production: failed to improve
[2]; diabetic mice
  wound healing rate, insulin combined with HBO+SDF-1α therapy: did not further accelerate
[2]; diabetic mice treated with insulin 6 U/kg twice/d i.p.
  wound healing rates: failed to improve; also recorded: Little effect

From patent US8440617B2, “Hyperbaric treatment in wound healing” (The Trustees of the University of Pennsylvania, priority 2007, dated 2013)
